Test results: patent US20240108740A1, “THERAPEUTIC COMPOSITIONS INCLUDING SPN10 AND USES THEREOF” (Stealth BioTherapeutics Inc., priority 2022, published 2024)
Residues, ends and D or L forms follow the SMILES beside them.

Experiments:
isolated mitochondria [1] = assay: Example 12: MPT induced by Ca^2+ overload and 3NP in isolated mitochondria
Protocol: 3-Nitropropionic acid (3NP) is an irreversible inhibitor of succinate dehydrogenase in complex II of the electron transport chain. It is anticipated that the addition of 3NP (1 mM) to isolated mitochondria will cause the loss of mitochondrial membrane potential and the onset of MPT.

[2] = tested on: Isolated guinea pig hearts; assay: Example 6: isolated hearts, 18 hours cold ischemic storage and warm reperfusion
Protocol: Isolated guinea pig hearts will be perfused with St. Thomas solution alone or St. Thomas solution containing peptide conjugates (1-100 nM), aromatic-cationic peptides (e.g., an equivalent molar dose of aromatic-cationic peptide based on the concentration of the aromatic-cationic peptide administered in the peptide conjugate treatment group), SPN10(s) (e.g., an equivalent molar dose of SPN10 based on the concentration of SPN10 administered in the peptide conjugate treatment group), or SPN10(s) in combination with aromatic-cationic peptides (e.g., an equivalent molar dose of SPN10 based on the concentration of SPN10 administered in the peptide conjugate treatment group and an equivalent molar dose of aromatic-cationic peptide based on the concentration of aromatic-cationic peptide administered in the peptide conjugate treatment group) for 3 minutes and then stored in the same solution at 4° C. for 18 hours. After ischemic storage, hearts will be re-perfused with 34° C. Krebs-Henseleit solution for 90 min. Hearts freshly isolated from guinea pigs will be used as controls.
The hearts will be fixed in paraffin and sliced for immunostaining with an anti-CD36 rabbit polyclonal antibody. It is anticipated that the sections from a representative heart stored in St. Thomas solution for 18 hours at 4° C. will show increased CD36 staining compared to freshly isolated controls.
It is also anticipated that there will be a decrease in lipid peroxidation in the hearts treated with peptide conjugates, aromatic-cationic peptides, or SPN10(s) (with or without aromatic-cationic peptides). […]

isolated mitochondria [3] = assay: Example 13: mitochondrial swelling (A540) and cytochrome c release (ELISA)
Text: MPT pore opening results in mitochondrial swelling. […] Mitochondrial suspensions will be centrifuged and the amount of cytochrome c in the pellet and supernatant will be determined using a commercially available ELISA kit.

[4] = tested on: subjects at risk for developing hyperalgesia; assay: Prevention of neuropathy or hyperalgesia in at-risk humans; assay type: in vivo, human; conditions: s.c., once daily
Text: Subjects at risk for developing hyperalgesia will be recruited as they present in clinic for the treatment of conditions associated with the development of peripheral neuropathy or hyperalgesia. Independent studies will address neuropathy and hyperalgesia resulting from, caused by, or otherwise associated with genetic disorders, metabolic/endocrine complications, inflammatory diseases, vitamin deficiencies, malignant diseases, and toxicity, such as alcohol, organic metal, heavy metal, radiation, and drug toxicity. Subjects will be selected such that they are at risk for developing a single type of neuropathy or hyperalgesia, having no risk factors outside the scope of the study in which the subject is enrolled, and as yet not having symptoms associated with neuropathy or hyperalgesia. Subjects will be screened for their willingness to enroll in the study, and informed consent will be obtained. […]
After a focused interview about the medical history, baseline measurements of touch and sharpness detection thresholds, grooved pegboard tests, and thermal detection thresholds will be determined according to the methods described above, with statistical analysis as described above. […]
Subjects will be evaluated weekly during the trial for sharpness detection thresholds, grooved pegboard tests, and thermal detection thresholds. […]

## N=C(N)NCCC[C@H](NC(=O)[C@@H](N)Cc1c[nH]c2ccccc12)C(=O)N[C@@H](Cc1c[nH]c2ccccc12)C(=O)N[C@@H](CCCCN)C(N)=O [SPN10, H-L-Trp-L-Arg-L-Trp-L-Lys-NH2] (H-WRWK-NH2)
Isolated mitochondria [1]
  tolerance of mitochondria to cumulative Ca^2+ challenges: dose-dependently increase the tolerance
Isolated mitochondria [1]; 10 μM pre-treatment for 2 minutes prior to Ca^2+
  onset of MPT after Ca^2+: prevent the onset of MPT
Isolated mitochondria [1]; 3NP 1 mM
  onset of MPT induced by 3NP: dose-dependently delay the onset of MPT
[2]
  coronary blood flow after cold ischemic storage and warm reperfusion: significant improvement of coronary blood flow
[2]; 18 hours cold ischemia, 90 minutes reperfusion
  HNE staining in stored hearts: reduced
[2]; St. Thomas solution, 18 hours, 4° C.
  CD36 staining in stored hearts: significantly reduced
Isolated mitochondria [3]
  mitochondrial swelling induced by MPP^+: prevent mitochondrial swelling
Isolated mitochondria [3]; pre-treatment
  swelling and cytochrome c release induced by Ca^2+ overload: inhibit swelling and cytochrome c release
[4]
  development of neuropathy or hyperalgesia: attenuated
